Values of other authors as cited in PMC9147171, “Pharmacokinetic/Pharmacodynamic Evaluation of a New Purine-2,6-Dione Derivative in Rodents with Experimental Autoimmune Diseases” (Pharmaceutics, 2022).
Like-named read-outs stand apart in the source and are kept apart here.

Columns and labels:
hrPDE1B = molecular target: T1, hrPDE1B (Homo sapiens, UniProt Q01064); parameters: method as in PMID 31899535; settings: PDE1B; read-out: IC50 (µM) Against PDE Isoform (CV%) PDE1B; cited from earlier work
T1 construct: purchased SignalChem, Richmond, Canada

[1] = rats; from the authors' previous investigations; cited from earlier work
PDE7A = settings: read-out: IC50 (µM) Against PDE Isoform PDE7A; cited from earlier work
[2] = mice; from the authors' previous investigations; cited from earlier work
PDE4B = settings: read-out: IC50 (µM) Against PDE Isoform PDE4B; cited from earlier work
hrPDE3A = molecular target: T2, hrPDE3A (Homo sapiens, UniProt Q14432); parameters: method as in PMID 31899535; settings: PDE3A; read-out: IC50 (µM) Against PDE Isoform (CV%) PDE3A; cited from earlier work
T2 construct: purchased SignalChem, Richmond, Canada
T2 sequence (Q14432 whole entry, canonical isoform): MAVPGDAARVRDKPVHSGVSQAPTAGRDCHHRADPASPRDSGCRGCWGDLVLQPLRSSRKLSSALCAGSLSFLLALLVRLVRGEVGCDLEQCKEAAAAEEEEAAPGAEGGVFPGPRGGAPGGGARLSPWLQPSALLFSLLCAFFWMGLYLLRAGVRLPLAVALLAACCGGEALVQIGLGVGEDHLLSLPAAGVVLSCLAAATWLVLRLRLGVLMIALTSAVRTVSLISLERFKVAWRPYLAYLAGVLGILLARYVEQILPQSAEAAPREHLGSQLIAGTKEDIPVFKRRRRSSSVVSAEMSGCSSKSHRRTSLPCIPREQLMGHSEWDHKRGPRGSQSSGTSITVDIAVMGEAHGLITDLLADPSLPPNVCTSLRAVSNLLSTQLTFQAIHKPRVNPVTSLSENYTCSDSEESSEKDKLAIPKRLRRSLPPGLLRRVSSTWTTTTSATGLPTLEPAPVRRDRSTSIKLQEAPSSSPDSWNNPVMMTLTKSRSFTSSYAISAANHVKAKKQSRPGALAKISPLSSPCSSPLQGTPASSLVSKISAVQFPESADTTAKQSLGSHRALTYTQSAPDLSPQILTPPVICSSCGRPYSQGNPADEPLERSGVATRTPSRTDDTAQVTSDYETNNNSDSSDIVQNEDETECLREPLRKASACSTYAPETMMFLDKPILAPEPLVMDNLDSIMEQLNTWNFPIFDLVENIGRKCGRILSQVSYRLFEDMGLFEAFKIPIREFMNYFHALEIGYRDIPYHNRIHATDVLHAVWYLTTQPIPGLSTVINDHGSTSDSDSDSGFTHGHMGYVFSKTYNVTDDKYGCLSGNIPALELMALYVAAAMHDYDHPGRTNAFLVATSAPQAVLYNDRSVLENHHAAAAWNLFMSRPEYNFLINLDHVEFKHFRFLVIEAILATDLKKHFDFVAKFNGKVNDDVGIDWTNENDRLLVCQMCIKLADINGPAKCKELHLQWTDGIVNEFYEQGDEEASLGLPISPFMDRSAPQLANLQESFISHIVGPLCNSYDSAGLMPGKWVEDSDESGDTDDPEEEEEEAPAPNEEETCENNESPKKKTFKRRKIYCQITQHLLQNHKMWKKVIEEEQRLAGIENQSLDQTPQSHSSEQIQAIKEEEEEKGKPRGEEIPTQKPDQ

T1 sequence (Q01064 whole entry, canonical isoform): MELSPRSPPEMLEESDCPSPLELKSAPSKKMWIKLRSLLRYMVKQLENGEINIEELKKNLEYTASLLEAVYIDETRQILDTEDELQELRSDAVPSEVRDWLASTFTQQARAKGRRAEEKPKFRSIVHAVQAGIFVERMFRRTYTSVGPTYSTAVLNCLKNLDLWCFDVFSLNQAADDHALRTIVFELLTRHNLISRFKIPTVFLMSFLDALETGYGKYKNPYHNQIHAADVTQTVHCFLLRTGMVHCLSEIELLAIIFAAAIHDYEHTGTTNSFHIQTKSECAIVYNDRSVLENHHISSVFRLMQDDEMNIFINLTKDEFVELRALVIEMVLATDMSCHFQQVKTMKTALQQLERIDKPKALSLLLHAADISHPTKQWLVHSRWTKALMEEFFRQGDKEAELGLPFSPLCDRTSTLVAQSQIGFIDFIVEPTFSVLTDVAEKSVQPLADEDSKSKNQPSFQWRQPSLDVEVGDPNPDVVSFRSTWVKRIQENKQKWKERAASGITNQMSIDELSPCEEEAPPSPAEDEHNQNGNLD

Row | Compound | IC50 (hrPDE1B) [µM] | half-life [1] | IC50 (PDE7A) [µM] | half-life [2] | IC50 (PDE4B) [µM] | IC50 (hrPDE3A) [µM]
1 | Cn1c(=O)c2c(nc(NCCc3ccccc3)n2CCCC(=O)NN=Cc2ccccc2O)n(C)c1=O [GRMS-55] | 2.5 | around 30 min | 7.3 | around 30 min | 26.9 | 13.4
2 | Cc1ccc([N+](=O)[O-])cc1S(=O)(=O)N(C)C [BRL—50481] |  |  | 2.1 |  |  | 
